Columns and labels:
recombinant human MER = biological target: T1, recombinant human MER (Homo sapiens, UniProt Q12866); test: HTRF KinEASE-TK biochemical potency, MER; settings: 1 nM MER, 700 μM ATP
T1 construct: purchased Invitrogen
T1 sequence (Q12866 21-999): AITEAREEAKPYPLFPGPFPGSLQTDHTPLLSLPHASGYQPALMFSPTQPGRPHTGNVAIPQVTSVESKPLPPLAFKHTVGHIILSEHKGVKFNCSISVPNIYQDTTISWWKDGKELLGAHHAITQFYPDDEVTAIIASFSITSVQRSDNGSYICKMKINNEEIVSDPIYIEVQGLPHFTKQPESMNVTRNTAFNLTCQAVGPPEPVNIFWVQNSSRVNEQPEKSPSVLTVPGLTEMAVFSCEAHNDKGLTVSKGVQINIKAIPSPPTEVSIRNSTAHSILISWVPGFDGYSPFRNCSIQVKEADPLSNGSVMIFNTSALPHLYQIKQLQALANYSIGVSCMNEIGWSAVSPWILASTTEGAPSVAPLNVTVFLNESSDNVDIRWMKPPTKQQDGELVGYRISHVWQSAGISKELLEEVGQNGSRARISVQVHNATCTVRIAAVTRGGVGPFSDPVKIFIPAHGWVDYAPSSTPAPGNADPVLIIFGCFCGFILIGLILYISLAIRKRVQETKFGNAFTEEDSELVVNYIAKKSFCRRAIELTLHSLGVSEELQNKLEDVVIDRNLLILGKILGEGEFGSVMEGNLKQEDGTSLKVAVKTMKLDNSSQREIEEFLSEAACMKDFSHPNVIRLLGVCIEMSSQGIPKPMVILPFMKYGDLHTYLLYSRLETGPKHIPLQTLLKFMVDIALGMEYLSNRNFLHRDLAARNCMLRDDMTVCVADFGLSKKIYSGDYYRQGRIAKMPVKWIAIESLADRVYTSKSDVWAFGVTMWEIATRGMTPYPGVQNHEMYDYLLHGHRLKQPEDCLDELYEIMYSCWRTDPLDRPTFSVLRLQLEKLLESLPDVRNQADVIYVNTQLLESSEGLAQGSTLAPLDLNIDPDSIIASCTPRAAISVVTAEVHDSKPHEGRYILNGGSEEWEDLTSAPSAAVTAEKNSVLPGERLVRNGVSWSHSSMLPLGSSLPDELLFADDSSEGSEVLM
Procedure: (§1) Purified recombinant human AXL, TYRO3 and MER proteins were purchased from Invitrogen™. 10 nM AXL, 2 nM TYRO3 or MER were incubated with varying concentrations of compounds in 50 mM HEPES, pH 7.4, 10 mM MgCl2, 0.01% BSA, 1 mM DTT and 2% DMSO in a total volume of 20 μl in a 384-well microplate (Corning™ #3640) at RT for 1 h. The AXL, TYRO3 and MER enzymatic reaction was initiated by transferring 10 μl of enzyme and compound mixture into 10 μl of 1.6 μM TK Substrate-biotin (HTRF® KinEASE-TK kit, Cisbio) and 1400 μM ATP pre-incubated in 50 mM HEPES, pH 7.4, 10 mM MgCl2, 0.01% BSA, 1 mM DTT in a 384-well microplate (Corning™ #3640) at RT, giving the final reaction conditions: 5 nM AXL, 1 nM TYRO3 or MER, 800 nM TK Substrate-biotin and 700 μM ATP in 50 mM HEPES, pH 7.4, 10 mM MgCl2, 0.01% BSA, 1 mM DTT and 1% DMSO with varying concentrations of compounds. Following 2 h incubation at RT, the AXL, TYRO3 and MER enzymatic reaction was stopped by transfer of 10 μl of reaction into 10 μl of detection mix (400 nM Streptavidin-XL665, 200-fold dilution TK Antibody-Cryptate and detection buffer, HTRF® KinEASE-TK kit, Cisbio) in a white 384-well microplate (Perkin Elmer, OptiPlate 384). After 1 h incubation at RT, the plate was put into a plate reader (Evision) to read at 665/620 nm (acceptor/donor) for HTRF. The value of the DMSO blank (MIN inhibition=100% activity) was used as a negative control. The positive control was established by adding 5 μl of enzyme and DMSO mixture into 10 μl of detection mix followed by addition of 5 μl of TK Substrate-biotin and ATP mixture (MAX inhibition=0% activity). To calculate the percent activity, Equation 1 was used. Ratio665/620 is the value at a given compound concentration: […]

Axl = biological target: T2, Axl (Homo sapiens, UniProt P30530); test: HTRF KinEASE-TK biochemical potency, AXL; parameters: purchased Invitrogen; settings: 5 nM AXL, 700 μM ATP
T2 sequence (P30530 26-894): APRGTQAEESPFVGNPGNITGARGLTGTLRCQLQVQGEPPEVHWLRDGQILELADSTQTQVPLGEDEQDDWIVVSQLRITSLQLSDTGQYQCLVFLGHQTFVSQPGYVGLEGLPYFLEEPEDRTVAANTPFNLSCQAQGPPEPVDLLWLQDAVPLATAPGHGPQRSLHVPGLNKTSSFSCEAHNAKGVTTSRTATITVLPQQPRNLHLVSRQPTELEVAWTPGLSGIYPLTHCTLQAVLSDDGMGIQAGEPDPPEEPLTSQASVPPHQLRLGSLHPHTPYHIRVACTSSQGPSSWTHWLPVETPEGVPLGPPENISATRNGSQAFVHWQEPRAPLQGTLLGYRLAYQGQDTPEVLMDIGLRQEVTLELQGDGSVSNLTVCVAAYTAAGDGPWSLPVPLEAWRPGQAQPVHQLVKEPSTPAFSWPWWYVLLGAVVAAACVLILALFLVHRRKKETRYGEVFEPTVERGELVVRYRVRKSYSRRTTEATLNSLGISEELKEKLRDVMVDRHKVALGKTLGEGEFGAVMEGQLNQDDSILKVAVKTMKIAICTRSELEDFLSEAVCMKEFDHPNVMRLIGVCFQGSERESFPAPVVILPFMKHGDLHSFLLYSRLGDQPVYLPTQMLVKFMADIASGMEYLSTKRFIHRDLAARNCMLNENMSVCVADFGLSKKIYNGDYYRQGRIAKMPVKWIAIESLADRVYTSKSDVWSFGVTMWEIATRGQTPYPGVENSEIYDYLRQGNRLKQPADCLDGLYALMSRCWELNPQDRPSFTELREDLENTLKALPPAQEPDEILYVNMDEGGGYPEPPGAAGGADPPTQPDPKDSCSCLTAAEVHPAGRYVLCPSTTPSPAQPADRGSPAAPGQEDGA
Procedure: as §1

Compound	IC50 (recombinant human MER) [nM]	IC50 (Axl) [nM]
O=C1NCCOc2cc(-c3n[nH]c4ncc(-c5ccc6c(c5)CCN(C5CCCC5)CC6)cc34)ccc21 [Example 7, 8-[5-(3-Cyclopentyl-2,3,4,5-tetrahydro-1H-3-benzazepin-7-yl)-1H-pyrazolo[3,4-b]pyridin-3-yl]-2,3,4,5-tetrahydro-1,4-benzoxazepin-5-one]	< 100	< 100
O=C1NCCOc2cc(-c3n[nH]c4ncc(-c5ccc6c(c5)CC[C@H](N5CCCC5)CC6)cc34)ccc21 (single isomer, unassigned) [Example 56]	100 to 1000	< 100
CC(C)C(=O)N1CCc2ccc(-c3cnc4[nH]nc(-c5ccc6c(c5)OCCNC6=O)c4c3)cc2CC1 [Example 16, 8-{5-[3-(2-Methylpropanoyl)-2,3,4,5-tetrahydro-1H-3-benzazepin-7-yl]-1H-pyrazolo[3,4-b]pyridin-3-yl}-2,3,4,5-tetrahydro-1,4-benzoxazepin-5-one]	100 to 1000	< 100
O=C1NCCOc2cc(-c3n[nH]c4ncc(-c5ccc6c(n5)CCC(N5CCCC5)CC6)cc34)ccc21 (stereo not drawn) [Example 63, 8-{5-[7-(Pyrrolidin-1-yl)-5H,6H,7H,8H,9H-cyclohepta[b]pyridin-2-yl]-1H-pyrazolo[3,4-b]pyridin-3-yl}-2,3,4,5-tetrahydro-1,4-benzoxazepin-5-one]	100 to 1000	< 100
C[C@H]1CCCN1C1Cc2ccc(-c3cnc4[nH]nc(-c5ccc6c(c5)OCC(C)(C)NC6=O)c4c3)cc2C1 (stereo partly drawn) [Example 39, 3,3-Dimethyl-8-(5-{2-[(2S)-2-methylpyrrolidin-1-yl]-2,3-dihydro-1H-inden-5-yl}-1H-pyrazolo[3,4-b]pyridin-3-yl)-2,3,4,5-tetrahydro-1,4-benzoxazepin-5-one]	100 to 1000	< 100
O=C1NCCOc2cc(-c3n[nH]c4ncc(-c5ccc6c(c5)CCC(NC5CCCC5)CC6)cc34)ccc21 (stereo not drawn) [Example 42, 8-{5-[7-(Cyclopentylamino)-6,7,8,9-tetrahydro-5H-benzo[7]annulen-2-yl]-1H-pyrazolo[3,4-b]pyridin-3-yl}-2,3,4,5-tetrahydro-1,4-benzoxazepin-5-one]	< 100	< 100
O=C1NCCOc2cc(-c3n[nH]c4ncc(-c5ccc6c(c5)CCN(C(=O)C5CC5)CC6)cc34)ccc21 [Example 17, 8-[5-(3-Cyclopropanecarbonyl-2,3,4,5-tetrahydro-1H-3-benzazepin-7-yl)-1H-pyrazolo[3,4-b]pyridin-3-yl]-2,3,4,5-tetrahydro-1,4-benzoxazepin-5-one]	< 100	< 100
C[C@@H]1CCCN1C1CCc2ccc(-c3cnc4[nH]nc(-c5ccc6c(c5)S(=O)(=O)NC6(C)C)c4c3)cc2CC1 (stereo partly drawn) [Example 33, 3,3-Dimethyl-6-(5-{7-[(2R)-2-methylpyrrolidin-1-yl]-6,7,8,9-tetrahydro-5H-benzo[7]annulen-2-yl}-1H-pyrazolo[3,4-b]pyridin-3-yl)-2,3-dihydro-1λ^6,2-benzothiazole-1,1-dione]	< 100	< 100
O=C1NCCOc2cc(-c3n[nH]c4ncc(-c5ccc6c(c5)CN(C5CCCC5)CC6)cc34)ccc21 [Example 10, 8-(5-(2-Cyclopentyl-1,2,3,4-tetrahydroisoquinolin-7-yl)-1H-pyrazolo[3,4-b]pyridin-3-yl)-3,4-dihydrobenzo[f][1,4]oxazepin-5(2H)-one]	< 100	< 100
O=C1NCCOc2cc(-c3n[nH]c4ncc(-c5ccc6c(c5)CCC(N5CCNCC5)CC6)cc34)ccc21 (stereo not drawn) [Example 48, 8-{5-[7-(Piperazin-1-yl)-6,7,8,9-tetrahydro-5H-benzo[7]annulen-2-yl]-1H-pyrazolo[3,4-b]pyridin-3-yl}-2,3,4,5-tetrahydro-1,4-benzoxazepin-5-one]	< 100	< 100
COCCN1CCc2ccc(-c3cnc4[nH]nc(-c5ccc6c(c5)OCCNC6=O)c4c3)cc2CC1 [Example 15, 8-(5-(3-(2-Methoxyethyl)-2,3,4,5-tetrahydro-1H-benzo[d]azepin-7-yl)-1H-pyrazolo[3,4-b]pyridin-3-yl)-3,4-dihydrobenzo[f][1,4]oxazepin-5(2H)-one]	< 100	< 100
O=C1NCCOc2cc(-c3n[nH]c4ncc(-c5ccc6c(c5)CCC(N5CCC[C@@H]5CO)CC6)cc34)ccc21 (stereo partly drawn) [Example 49, 8-(5-{7-[(2R)-2-(Hydroxymethyl)pyrrolidin-1-yl]-6,7,8,9-tetrahydro-5H-benzo[7]annulen-2-yl}-1H-pyrazolo[3,4-b]pyridin-3-yl)-2,3,4,5-tetrahydro-1,4-benzoxazepin-5-one]	< 100	< 100
C[C@@H]1CCCN1C1CCc2ccc(-c3cnc4[nH]nc(-c5cc6c(cc5F)C(=O)NCCO6)c4c3)cc2CC1 (stereo partly drawn) [Example 61, 7-Fluoro-8-(5-{7-[(2R)-2-methylpyrrolidin-1-yl]-6,7,8,9-tetrahydro-5H-benzo[7]annulen-2-yl}-1H-pyrazolo[3,4-b]pyridin-3-yl)-2,3,4,5-tetrahydro-1,4-benzoxazepin-5-one]	100 to 1000	< 100
C[C@@H]1CNC(=O)c2ccc(-c3n[nH]c4ncc(-c5ccc6c(c5)CCC(N5CCC[C@H]5C)CC6)cc34)cc2O1 (stereo partly drawn) [Example 59, (2R)-2-Methyl-8-(5-{7-[(2R)-2-methylpyrrolidin-1-yl]-6,7,8,9-tetrahydro-5H-benzo[7]annulen-2-yl}-1H-pyrazolo[3,4-b]pyridin-3-yl)-2,3,4,5-tetrahydro-1,4-benzoxazepin-5-one]	< 100	< 100
O=C1NCCOc2cc(-c3n[nH]c4ncc(-c5ccc6c(c5)CCC(N[C@H]5CCOC5)C6)cc34)ccc21 (stereo partly drawn) [Example 4, 8-[5-(6-{[(3S)—Oxolan-3-yl]amino}-5,6,7,8-tetrahydronaphthalen-2-yl)-1H-pyrazolo[3,4-b]pyridin-3-yl]-2,3,4,5-tetrahydro-1,4-benzoxazepin-5-one]	< 100	< 100
